From patent EP4385997A1 (priority 2022, dated 2024)
Where no end group is shown, it is not given here.

Test system: Xylella fastidiosa DSM10026/ATCC35879

How did the “MIC (µM)” value turn out when “KWKLFKKIEKVGQNIRDGIIKAGPAVAVVGQATQIAK-NH2 (C-terminus assumed) [Cecropin A BR001]” was run?
Its value is 6.25 µM.

And the “MIC (µg mL^-1)” value?
Its value is 25 µg/mL.
